Assay results as given in patent publication US7893043B2, “2-methylene-(17Z)-17(20)-dehydro-19,21-dinor-vitamin D analogs” (Wisconsin Alumni Research Foundation, priority 2008, dated 2011).
Entries after “also recorded” stand apart in the source; their conditions may differ. Like-named read-outs stand apart in the source and are kept apart here.

How the values were obtained:
[1] = tested on: bone calcium mobilization; assay: Bone calcium mobilization (serum calcium) in vitamin D-deficient rats; type: in vivo, rat
Description: (§1) Male, weanling Sprague-Dawley rats were placed on Diet 11 (0.47% Ca) diet +AEK oil for one week followed by Diet 11 (0.02% Ca) +AEK oil for 3 weeks. The rats were then switched to a diet containing 0.47% Ca for one week followed by two weeks on a diet containing 0.02% Ca. Dose administration began during the last week on 0.02% calcium diet. Four consecutive ip doses were given approximately 24 hours apart. Twenty-four hours after the last dose, blood was collected from the severed neck and the concentration of serum calcium determined as a measure of bone calcium mobilization. The first 10 cm of the intestine was also collected for intestinal calcium transport analysis using the everted gut sac method.
Calcium mobilization from bone and intestinal calcium absorption in vitamin D-deficient animals. Using vitamin D-deficient rats on a low calcium diet (0.02%), the activities of Vit II Z and 1,25(OH)2D3 in intestine and bone were tested. As expected, the native hormone (1,25(OH)2D3) increased serum calcium levels at all dosages (FIG. 4).

[2] = tested on: intestinal calcium transport; assay: Intestinal calcium transport, everted gut sac method; type: in vivo, rat; details: for intestinal calcium transport: everted gut sac
Description: as §1
Intestinal calcium transport was evaluated in the same groups of animals using the everted gut sac method (FIG. 5). […] Thus, it may be concluded that Vit II Z has essentially similar intestinal calcium transport activity at the recommended lower doses to that of 1,25(OH)2D3.

[3] = tested on: HL-60 cells; assay: HL-60 differentiation (nitro blue tetrazolium reduction); type: cell-based, human; details: differentiation of HL-60 cells into monocytes, FIG. 2, read-out: EC50, HL-60 cell differentiation
Description: The study drugs were dissolved in ethanol and the concentrations determined using UV spectrophotometry. Serial dilutions were prepared so that a range of drug concentrations could be tested without changing the final concentration of ethanol (≦0.2%) present in the cell cultures.
Human promyelocytic leukemia (HL60) cells were grown in RPMI-1640 medium containing 10% fetal bovine serum. The cells were incubated at 37° C. in the presence of 5% CO2.
HL60 cells were plated at 1.2×10^5 cells/ml. Eighteen hours after plating, cells in duplicate were treated with drug. Four days later, the cells were harvested and a nitro blue tetrazolium reduction assay was performed (Collins et al., 1979; J. Exp. Med. 149:969-974). The percentage of differentiated cells was determined by counting a total of 200 cells and recording the number that contained intracellular black-blue formazan deposits. Verification of differentiation to monocytic cells was determined by measuring phagocytic activity (data not shown).

[4] = biological target: T1, full-length recombinant rat vitamin D receptor (Rattus norvegicus, UniProt P13053); assay: Vitamin D receptor binding, competition with [3H]-1,25(OH)2D3; details: FIG. 1
T1 construct: Full-length recombinant rat receptor was expressed in E. coli BL21 (DE3) Codon Plus RIL cells; histidine tag (C); made in house; host or cells: E. coli BL21 (DE3) Codon Plus RIL
T1 sequence (P13053 1-423): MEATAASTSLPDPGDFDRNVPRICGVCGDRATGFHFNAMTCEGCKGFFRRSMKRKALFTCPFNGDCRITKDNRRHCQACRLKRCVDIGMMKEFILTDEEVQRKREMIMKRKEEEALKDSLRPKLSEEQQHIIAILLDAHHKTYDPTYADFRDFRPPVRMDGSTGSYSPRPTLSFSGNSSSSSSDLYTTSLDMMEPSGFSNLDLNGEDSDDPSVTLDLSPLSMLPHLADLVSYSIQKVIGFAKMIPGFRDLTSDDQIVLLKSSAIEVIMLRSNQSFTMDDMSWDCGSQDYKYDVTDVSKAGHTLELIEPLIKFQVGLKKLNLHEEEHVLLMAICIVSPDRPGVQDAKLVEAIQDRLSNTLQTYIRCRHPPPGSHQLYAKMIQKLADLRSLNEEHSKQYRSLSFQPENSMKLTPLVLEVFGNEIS
Description: Full-length recombinant rat receptor was expressed in E. coli BL21 (DE3) Codon Plus RIL cells and purified to homogeneity using two different column chromatography systems. The first system was a nickel affinity resin that utilizes the C-terminal histidine tag on this protein. The protein that was eluted from this resin was further purified using ion exchange chromatography (S-Sepharose Fast Flow). Aliquots of the purified protein were quick frozen in liquid nitrogen and stored at −80° C. until use. For use in binding assays, the protein was diluted in TEDK50 (50 mM Tris, 1.5 mM EDTA, pH7.4, 5 mM DTT, 150 mM KCl) with 0.1% Chaps detergent. The receptor protein and ligand concentration were optimized such that no more than 20% of the added radiolabeled ligand was bound to the receptor.
Radiolabeled and unlabeled ligands were added to 100 mcl of the diluted protein at a final ethanol concentration of ≦10%, mixed and incubated overnight on ice to reach binding equilibrium. The following day, 100 mcl of hydroxylapatite slurry (50%) was added to each tube and mixed at 10-minute intervals for 30 minutes. […] After the final wash, the pellets were transferred to scintillation vials containing 4 ml of Biosafe II scintillation cocktail, mixed and placed in a scintillation counter. Total binding was determined from the tubes containing only radiolabeled ligand.

[5] = tested on: 24-hydroxylase (24Ohase) gene promoter; assay: In vitro transcription assay (24-hydroxylase promoter luciferase reporter in ROS 17/2.8 bone cells); type: cell-based; details: ROS 17/2.8 cells, FIG. 3, read-out: EC50, transcriptional activity in bone cells
Description: Transcription activity was measured in ROS 17/2.8 (bone) cells that were stably transfected with a 24-hydroxylase (24Ohase) gene promoter upstream of a luciferase reporter gene (Arbour et al., 1998). Cells were given a range of doses. Sixteen hours after dosing the cells were harvested and luciferase activities were measured using a luminometer.
RLU=relative luciferase units.

EC50 ([3]; Homo sapiens) [nM] | VDR binding affinity compared to 1,25-(OH)2D3 [4] | Ki ([4]; full-length recombinant rat VDR) [nM] | Structure (SMILES) | bone calcium mobilization activity compared to 1,25(OH)2D3 ([1]; 87 pmol/day and 780 pmol/day for 4 consecutive days, rats on 0.02% Ca diet) | bone calcium mobilization, effect of increasing the dose ([1]; 2340 pmol/day, rats on 0.02% Ca diet) | bone calcium mobilization activity compared to 1,25(OH)2D3 ([1]; vitamin D-deficient rats, ip, FIG. 4) | intestinal calcium transport ([2]; 29 pmol/day) | intestinal calcium transport ([2]; 2340 pmol/day) | intestinal calcium transport activity compared to 1,25(OH)2D3 ([2]; vitamin D-deficient rats, ip, FIG. 5) | EC50 [5] [nM] | serum calcium levels ([1]; all dosages, rats on 0.02% Ca diet, FIG. 4) | intestinal calcium transport ([2]; at the tested doses) | EC50 [3] [nM]
0.08 | nearly the same affinity | 0.2 | C=C1[C@H](O)CC(=C/C=C2\CCC[C@]3(C)/C(=C\CCCC(C)(C)O)CC[C@@H]23)C[C@H]1O [Vit II Z, 2-methylene-(17Z)-17(20)-dehydro-19,21-dinor-1α,25-dihydroxyvitamin D3] | about the same as or equal to | without any substantial additional effect | about the same or equal bone calcium mobilization activity | promotes intestinal calcium transport | very significant intestinal calcium transport activity | about the same or equal activity; also recorded: about the same as or equal to | 0.03 | – | – | –
– | – | – | C=C1/C(=C\C=C2/CCC[C@]3(C)[C@@H]([C@H](C)CCCC(C)(C)O)CC[C@@H]23)C[C@@H](O)C[C@@H]1O [1α,25-dihydroxyvitamin D3, reference compound] | – | – | – | – | – | – | 0.2 | increased | significant increase | 2
